Here are results for one compound from patent publication US4822791A, “Pharmaceutical compositions of-2,2-1,1-[bis-2,2'-(3,1-benzoxazin-4-one)9 ethylenes” (priority 1984, dated 1989).

In assay [1] the test system is mast cell in abdominal cavity. Nature of the assay: Histamine release by antigen DNP-Ascaris, mast cell in abdominal cavity (Test Example 10). The class given is cell-based, rat. The settings on record: Rattus norvegicus, Mast cell, 20 min; 10^-3 M; read-out: released amount of histamin, Mast cell in abdominal cavity (control shown as 100). As to the method: (§1) Examination was made cn the activity of inhibition of histamine release from mast cell by antigen-antibody reaction.
(§2) Preparation of DNP-Ascaris antiserum was conducted in a manner similar to that in Test Example 6.
(§3) Heparin-containing PBS was injected into the abdominal cavity of rat which was sacrificed by bleeding, after which the abdomen was well massaged, and then peritoneal exudate was sampled. The same liquid was also injected into the thoracic cavity, and after shaking the breast for several minutes, the thoracic cavity liquid was sampled, which was purified by washing several times by centrifugation. The number of the mast cells contained in this liquid was measured and adjusted to a designated concentration. (Mast cells, 8.0×10^4 cells/ml).
To the cell suspension (4 ml, 9×10^5 cells/ml), anti-DNP-Ascaris rat serum (PCA titer, 32) (4 ml) was added, and the mixture was incubated in the presence of heparin at 37° C. for 2.5 hours. To the solution, 70 microgramms/ml phosphatidylserin PBS solution (0.5 ml) was added and the mixture was incubated at 37° C. for 12 minutes, after which 140 microgramms/ml antigen DNP-Ascaris PBS solution (0.5 ml) was added and the mixture was incubated further for 20 minutes.
After completion of the reaction, the reaction liquid was centrifuged (500 G, 10 min.) to obtain supernatant solution, and histamin in the supernatant solution was subjected to fluorometry by orthophthalal aldehyde method. The released amount of histamin in the control was shown as 100.

The test system of assay [2] is mast cell in abdominal cavity. The assay can be described thus: Release of histamine by antigen DNP-Ascaris, mast cell in abdominal cavity (Test Example 12). Format: cell-based, rat. The settings on record: Rattus norvegicus, Mast cell; 10^-3 M; read-out: Effect on release of histamine by antigen DNP-Ascaris, Mast cell in abdominal cavity (control 100). As to the method: (§4) Collection of mast cells in abdominal cavity and thoracic cavity and sensitizing of cells were conducted in similar manners to those in Test Example 10, respectively.
(§5) (1) Preparation of DNP-Ascaris antiserum was conducted in manner similar to that in Test Example 6.
(§6) This is conducted in amanner similar to that in Test Example 10.
(§7) This is conducted in a manner similar to that in Test Example 10.

Assay [3] has as its system passive cutaneous anaphylaxis (PCA). The assay can be described thus: Anti-passive cutaneous anaphylaxis (PCA) activity in rats (Test Example 2). The class given is in vivo, Wistar strain rats. The conditions noted are these: for inhibition in vivo at 100 mg/kg: Rattus norvegicus, 100 mg/kg PO, N 10. Summed up:
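Antiserum from Wistar rats sensitized with ovalbumin (alum plus B. pertussis adjuvant) was diluted 16- or 32-fold and injected into dorsal skin of naive rats, which were held 48 h. Compound was given orally 1 h before i.v. ovalbumin plus Evans blue.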

A further assay deals with hyaluronidase. The conditions noted are these: known from the literature; cited from earlier work.
In assay [4] the test system is Mast cell in thoracic cavity. Nature of the assay: Release of histamine by dextran (T-500), mast cell in thoracic cavity (Test Example 12). The class given is cell-based, rat. The conditions noted are these: Rattus norvegicus, Mast cell, 0.25 h; 10^-3 M; read-out: Effect on release of histamine by dextran (T-500), Mast cell in thoracic cavity (control 100). As to the method:
as §4
(§8) The sample solution was treated with 105 microgramms/ml phosphatidylserin PBS solution (0.5 ml) and incubated at 37° C. for 30 minutes, followed by addition of 25 mg/ml dextran (T-500) PBS solution (0.5 ml) and further incubation for 15 minutes.
as §7

In assay [5] the test system is passive cutaneous anaphylaxis (PCA). Nature of the assay: Anti-passive cutaneous anaphylaxis activity (PCA) in rats (Test Example 9). Format: in vivo. The settings on record: Rattus norvegicus, po, 100 mg/kg, 10 animals. A digest of the protocol:
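Antiserum came from Wistar rats sensitized with ovalbumin (aluminium hydroxide plus B. pertussis adjuvant) and bled at day 14. It was diluted 12- and 24-fold and injected into the dorsal skin of naive rats 48 h before challenge.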

The subject of assay [6] is mast cell in abdominal cavity. The assay can be described thus: Release of histamine by dextran (T-500), mast cell in abdominal cavity (Test Example 12). The class given is cell-based, rat. The conditions noted are these: Rattus norvegicus, Mast cell, 0.25 h, read-out: Effect on release of histamine by dextran (T-500), Mast cell in abdominal cavity (control 100). The procedure: as §4, §8, §7

The test system of assay [7] is anaphylaxis reaction to inhalated antigen. The assay can be described thus: Antigen inhalation test on passive sensitized guinea pig (experimental asthma model). The settings on record: 5 mg/kg iv. The class given is in vivo.
Description: The test compound and Tranilast were respectively suspended at the time of use in 5% gum arabic solution containing 0.1% Tween 80 at the rate of 40 mg/ml, and were perorally administered at the rate of 0.5 ml per 100 g body weight of the animal.
DSCG was dissolved at the time of use in physiological saline solultion for injection at the rate of 5.0 mg/ml, and was intravenously injected at the rate of 0.1 ml per 100 g body weight of the animal.
Anti-ovalbumin rabbit serum diluted with physiological saline solution for injection so as tc contain anti-ovalbumin rabbit antibody at the rate of 0.187 mg N/ml was intravenously administered to guinea pig at the rate of 0.1 ml per 100 g of body weight and it was passively sensitized.
Twenty-four hours later, the suspension of the compound prepared in (1) above was perorally or intravenously administered to the animal. The animal was put in the inhalation chamber one hour after the administration in case of the peroral administration and five minutes after the administration in case of the intravenous administration, and 2% physiological saline solution of antigen ovalbumin was inhaled by spraying. Over 10 minutes' period from the time immediately after the forced inhalation, the time until its fall attributed to anaphylaxis reaction was recorded, and the numbers of alive and dead animals after lapse of 10 minutes were also counted.
Assay [8] has as its system Mast cell in thoracic cavity. The assay can be described thus: Histamine release by antigen DNP-Ascaris, mast cell in thoracic cavity (Test Example 10). Format: cell-based. The settings on record: Rattus norvegicus, 20 min, 10^-3 M, read-out: released amount of histamin, Mast cell in thoracic cavity (control shown as 100). The procedure: as §1, §2, §3
To the cell suspension (4 ml, 9×10^5 cells/ml), anti-DNP-Ascaris rat serum (PCA titer, 32) (4 ml) was added, and the mixture was incubated in the presence of heparin at 37° C. for 2.5 hours. To the solution, 70 microgramms/ml phosphatidylserin PBS solution (0.5 ml) was added and the mixture was incubated at 37° C. for 12 minutes, after which 140 microgramms/ml antigen DNP-Ascaris PBS solution (0.5 ml) was added and the mixture was incubated further for 20 minutes. […]

Assay [9] concerns Mast cell in thoracic cavity. The assay can be described thus: Release of histamine by antigen DNP-Ascaris, mast cell in thoracic cavity (Test Example 12). The class given is cell-based. The settings on record: Rattus norvegicus, 10^-3 M, read-out: Effect on release of histamine by antigen DNP-Ascaris, Mast cell in thoracic cavity (control 100). As to the method:
as §4, §5, §6, §7

Where “and” joins values, the source holds several entries; their conditions need not be identical. Identical values can stand only once.

As to `O=C(O)c1cc(=O)c2c(OCC(O)COc3cccc4oc(C(=O)O)cc(=O)c34)cccc2o1` [DSCG, disodium cromoglicate, reference compound], the activity at 1000 µM in [1] turned out to be 76.8%; in assay [2] it was 76.8%; in assay [4] it was 42.2%; in assay [6] (10^-3 M) it was 60%; in [8], 105%; in [9] it was 105%. The inhibition in vivo at 100 mg/kg in [3] (read-out: Average Inhibition Rate (%) Antiserum Dilution: × 16) turned out to be 0.1%; in assay [3] (read-out: Average Inhibition Rate (%) Antiserum Dilution: × 32) it was 0.3%; in [5] (read-out: Inhibition, Anti-serum Dilution: × 12), 0%; in assay [5] (read-out: Inhibition, Anti-serum Dilution: × 24), 0%. Further, in [3] (peroral), the “anti-PCA activity by peroral administration (in words)” value was “no activity”. The “effect on hyaluronidase activity (in words)” value in the assay on hyaluronidase was “inhibit hyaluronidase activity”. The activity at 100 µM in [6] (10^-4 M) turned out to be 52.9%. In addition, in [7], the “Extended rate (%)” value was found to be 23.9%. For the same compound, in assay [7] (N 5), the “Average time for falling Mean ± S.E.” value worked out at 192.5 ± 20.3 s. For the same compound, the “Required time (sec.) for falling and Number of death (#), single animals” value in assay [7] (N 5, observed 10 minutes, # shows death) is 142 s and 188 s and 199 s and 241 s and > 600 s.
